Measured values taken from article PMC9234961 (Journal of Medicinal Chemistry, 2022).

Key:
kinases (468) [1] = target: kinases (468) (Homo sapiens, UniProt P45983); conditions: JNK1 (MAPK8); 1000 nM
kinases (468) [2] = target: kinases (468) (Homo sapiens, UniProt P10721, T670I/V559D); conditions: KIT(V559D,T670I); 1000 nM
kinases (468) [3] = target: kinases (468) (Homo sapiens, UniProt P00533, L858R/T790M); conditions: EGFR(L858R,T790M); 1000 nM
kinases (468) [4] = target: kinases (468) (Homo sapiens, UniProt Q12852); conditions: DLK (MAP3K12); 1000 nM
Sequence of kinases (468) (Homo sapiens, UniProt Q12852) (Q12852 whole entry): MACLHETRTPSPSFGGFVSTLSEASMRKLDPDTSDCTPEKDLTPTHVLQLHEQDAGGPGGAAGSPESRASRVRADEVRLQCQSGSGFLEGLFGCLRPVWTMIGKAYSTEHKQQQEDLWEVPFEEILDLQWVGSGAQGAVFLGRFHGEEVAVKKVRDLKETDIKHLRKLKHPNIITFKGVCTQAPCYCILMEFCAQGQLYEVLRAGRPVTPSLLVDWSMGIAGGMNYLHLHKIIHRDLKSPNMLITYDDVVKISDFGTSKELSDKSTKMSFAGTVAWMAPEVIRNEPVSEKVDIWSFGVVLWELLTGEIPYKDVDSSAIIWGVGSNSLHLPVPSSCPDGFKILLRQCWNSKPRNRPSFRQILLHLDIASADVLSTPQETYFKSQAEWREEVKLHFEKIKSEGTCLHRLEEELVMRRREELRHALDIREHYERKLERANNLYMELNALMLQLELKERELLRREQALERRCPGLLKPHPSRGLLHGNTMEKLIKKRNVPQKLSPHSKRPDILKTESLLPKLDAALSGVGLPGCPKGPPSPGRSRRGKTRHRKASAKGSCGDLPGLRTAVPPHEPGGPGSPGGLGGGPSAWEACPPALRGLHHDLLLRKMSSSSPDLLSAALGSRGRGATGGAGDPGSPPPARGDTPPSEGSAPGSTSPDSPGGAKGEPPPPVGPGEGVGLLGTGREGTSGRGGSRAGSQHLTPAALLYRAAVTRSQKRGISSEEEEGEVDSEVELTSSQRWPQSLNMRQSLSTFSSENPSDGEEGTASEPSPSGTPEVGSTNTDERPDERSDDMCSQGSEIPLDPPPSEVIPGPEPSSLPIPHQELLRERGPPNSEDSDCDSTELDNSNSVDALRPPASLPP

kinases (468) [5] = target: kinases (468) (Homo sapiens, UniProt Q9UEW8); conditions: kinase STK39 (Entrez STK39); compound concentration 1000 nM
kinases (468) [6] = target: kinases (468) (Homo sapiens, UniProt Q8NE63); conditions: HIPK4; 1000 nM
kinases (468) [7] = target: kinases (468) (Homo sapiens, UniProt P36888, K663Q); conditions: FLT3(K663Q); 1000 nM
kinases (468) [8] = target: kinases (468) (Homo sapiens, UniProt P78362); conditions: kinase SRPK2 (Entrez SRPK2); compound concentration 1000 nM
kinases (468) [9] = target: kinases (468) (Homo sapiens, UniProt O00238); conditions: BMPR1B; 1000 nM
Sequence of kinases (468) (Homo sapiens, UniProt O00238) (O00238 14-502): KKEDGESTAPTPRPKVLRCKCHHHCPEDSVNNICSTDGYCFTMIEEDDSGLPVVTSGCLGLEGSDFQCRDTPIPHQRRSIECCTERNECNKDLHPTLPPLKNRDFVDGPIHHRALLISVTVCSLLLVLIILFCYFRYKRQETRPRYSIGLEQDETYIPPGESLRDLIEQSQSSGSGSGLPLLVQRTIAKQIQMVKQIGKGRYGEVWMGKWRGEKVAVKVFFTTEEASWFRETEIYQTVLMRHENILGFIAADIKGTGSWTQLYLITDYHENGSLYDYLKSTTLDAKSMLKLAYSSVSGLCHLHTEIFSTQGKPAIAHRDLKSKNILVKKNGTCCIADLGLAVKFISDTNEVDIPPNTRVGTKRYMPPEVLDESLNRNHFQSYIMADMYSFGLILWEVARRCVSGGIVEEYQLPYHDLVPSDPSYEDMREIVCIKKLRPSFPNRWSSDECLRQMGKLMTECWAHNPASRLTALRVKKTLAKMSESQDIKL

kinases (468) [10] = target: kinases (468) (Homo sapiens, UniProt Q9UM73, L1196M); conditions: ALK(L1196M); 1000 nM
kinases (468) [11] = target: kinases (468) (Homo sapiens, UniProt Q9BYT3); conditions: kinase STK33 (Entrez STK33); compound concentration 1000 nM
Sequence of kinases (468) (Homo sapiens, UniProt Q9BYT3) (Q9BYT3 whole entry): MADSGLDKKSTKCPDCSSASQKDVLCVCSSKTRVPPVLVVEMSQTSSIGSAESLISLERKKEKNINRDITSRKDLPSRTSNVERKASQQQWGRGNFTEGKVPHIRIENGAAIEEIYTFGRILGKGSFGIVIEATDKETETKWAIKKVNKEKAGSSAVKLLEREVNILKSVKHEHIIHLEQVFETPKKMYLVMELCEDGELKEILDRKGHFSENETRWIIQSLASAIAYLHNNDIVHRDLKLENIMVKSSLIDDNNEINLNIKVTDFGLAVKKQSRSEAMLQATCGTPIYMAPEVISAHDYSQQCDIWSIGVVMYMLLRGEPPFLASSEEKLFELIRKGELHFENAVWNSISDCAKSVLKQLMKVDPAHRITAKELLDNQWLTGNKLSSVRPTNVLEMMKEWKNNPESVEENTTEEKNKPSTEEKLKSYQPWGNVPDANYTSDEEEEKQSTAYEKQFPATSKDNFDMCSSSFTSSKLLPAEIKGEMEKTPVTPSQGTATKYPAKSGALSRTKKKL

kinases (468) [12] = target: kinases (468) (Homo sapiens, UniProt Q9BZL6); conditions: PRKD2; 1000 nM
kinases (468) [13] = target: kinases (468) (Homo sapiens, UniProt P29323); conditions: EPHB2; 1000 nM
kinases (468) [14] = target: kinases (468) (Homo sapiens, UniProt P68400); conditions: CSNK2A1; 1000 nM
kinases (468) [15] = target: kinases (468) (Homo sapiens, UniProt Q99683); conditions: ASK1 (MAP3K5); 1000 nM
kinases (468) [16] = target: kinases (468) (Homo sapiens, UniProt Q9BQI3); conditions: EIF2AK1; 1000 nM
kinases (468) [17] = target: kinases (468) (Homo sapiens, UniProt Q9H2G2); conditions: kinase SLK (Entrez SLK); compound concentration 1000 nM
kinases (468) [18] = target: kinases (468) (Homo sapiens, UniProt Q9H3Y6); conditions: kinase SRMS (Entrez SRMS); compound concentration 1000 nM
kinases (468) [19] = target: kinases (468) (Homo sapiens, UniProt Q52WX2); conditions: kinase SBK1 (Entrez SBK1); compound concentration 1000 nM
kinases (468) [20] = target: kinases (468) (Homo sapiens, UniProt O60331); conditions: PIP5K1C; 1000 nM
kinases (468) [21] = target: kinases (468) (Homo sapiens, UniProt Q9Y6R4); conditions: MAP3K4; 1000 nM
Sequence of kinases (468) (Homo sapiens, UniProt Q9Y6R4) (Q9Y6R4 whole entry): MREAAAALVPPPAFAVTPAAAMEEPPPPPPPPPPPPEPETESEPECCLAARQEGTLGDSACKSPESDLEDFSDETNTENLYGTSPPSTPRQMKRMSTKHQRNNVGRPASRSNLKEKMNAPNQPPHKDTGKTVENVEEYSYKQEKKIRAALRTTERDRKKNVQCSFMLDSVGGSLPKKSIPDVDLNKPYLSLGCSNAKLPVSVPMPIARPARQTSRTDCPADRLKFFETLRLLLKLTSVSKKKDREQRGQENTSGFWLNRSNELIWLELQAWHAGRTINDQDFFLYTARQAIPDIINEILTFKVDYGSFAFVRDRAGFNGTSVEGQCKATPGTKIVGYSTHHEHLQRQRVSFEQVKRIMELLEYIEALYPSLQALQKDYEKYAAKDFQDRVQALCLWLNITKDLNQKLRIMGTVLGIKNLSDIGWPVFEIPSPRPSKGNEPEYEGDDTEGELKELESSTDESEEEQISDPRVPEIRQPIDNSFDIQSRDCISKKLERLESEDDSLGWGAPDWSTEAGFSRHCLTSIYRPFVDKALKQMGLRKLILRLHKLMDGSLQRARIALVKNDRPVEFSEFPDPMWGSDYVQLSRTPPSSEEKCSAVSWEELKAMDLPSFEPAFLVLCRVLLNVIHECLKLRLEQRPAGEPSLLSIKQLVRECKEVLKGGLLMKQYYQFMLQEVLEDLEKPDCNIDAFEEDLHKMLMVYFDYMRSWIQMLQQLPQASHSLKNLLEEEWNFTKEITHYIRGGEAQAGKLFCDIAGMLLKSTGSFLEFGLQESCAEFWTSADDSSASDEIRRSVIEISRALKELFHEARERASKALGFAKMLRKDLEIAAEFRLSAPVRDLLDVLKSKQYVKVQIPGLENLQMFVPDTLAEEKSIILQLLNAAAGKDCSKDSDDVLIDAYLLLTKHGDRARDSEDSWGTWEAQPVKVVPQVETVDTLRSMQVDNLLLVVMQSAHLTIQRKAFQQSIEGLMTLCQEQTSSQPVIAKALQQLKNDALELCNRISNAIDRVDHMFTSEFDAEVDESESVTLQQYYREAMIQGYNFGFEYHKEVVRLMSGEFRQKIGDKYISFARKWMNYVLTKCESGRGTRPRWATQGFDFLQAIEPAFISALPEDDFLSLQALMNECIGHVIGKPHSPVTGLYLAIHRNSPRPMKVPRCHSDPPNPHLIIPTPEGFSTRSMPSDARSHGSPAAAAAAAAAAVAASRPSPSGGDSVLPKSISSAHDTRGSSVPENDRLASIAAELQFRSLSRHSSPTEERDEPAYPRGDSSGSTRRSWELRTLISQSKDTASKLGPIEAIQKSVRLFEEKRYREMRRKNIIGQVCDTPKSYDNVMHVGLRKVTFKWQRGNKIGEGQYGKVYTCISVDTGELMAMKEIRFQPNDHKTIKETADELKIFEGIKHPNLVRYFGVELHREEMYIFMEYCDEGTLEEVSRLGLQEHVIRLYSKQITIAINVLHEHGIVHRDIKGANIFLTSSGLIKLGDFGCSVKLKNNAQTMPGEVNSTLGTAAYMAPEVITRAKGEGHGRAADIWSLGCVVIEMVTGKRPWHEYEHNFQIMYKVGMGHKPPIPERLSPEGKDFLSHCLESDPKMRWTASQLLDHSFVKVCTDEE

kinases (468) [22] = target: kinases (468) (Homo sapiens, UniProt P22455); conditions: FGFR4; 1000 nM
Sequence of kinases (468) (Homo sapiens, UniProt P22455) (P22455 22-802): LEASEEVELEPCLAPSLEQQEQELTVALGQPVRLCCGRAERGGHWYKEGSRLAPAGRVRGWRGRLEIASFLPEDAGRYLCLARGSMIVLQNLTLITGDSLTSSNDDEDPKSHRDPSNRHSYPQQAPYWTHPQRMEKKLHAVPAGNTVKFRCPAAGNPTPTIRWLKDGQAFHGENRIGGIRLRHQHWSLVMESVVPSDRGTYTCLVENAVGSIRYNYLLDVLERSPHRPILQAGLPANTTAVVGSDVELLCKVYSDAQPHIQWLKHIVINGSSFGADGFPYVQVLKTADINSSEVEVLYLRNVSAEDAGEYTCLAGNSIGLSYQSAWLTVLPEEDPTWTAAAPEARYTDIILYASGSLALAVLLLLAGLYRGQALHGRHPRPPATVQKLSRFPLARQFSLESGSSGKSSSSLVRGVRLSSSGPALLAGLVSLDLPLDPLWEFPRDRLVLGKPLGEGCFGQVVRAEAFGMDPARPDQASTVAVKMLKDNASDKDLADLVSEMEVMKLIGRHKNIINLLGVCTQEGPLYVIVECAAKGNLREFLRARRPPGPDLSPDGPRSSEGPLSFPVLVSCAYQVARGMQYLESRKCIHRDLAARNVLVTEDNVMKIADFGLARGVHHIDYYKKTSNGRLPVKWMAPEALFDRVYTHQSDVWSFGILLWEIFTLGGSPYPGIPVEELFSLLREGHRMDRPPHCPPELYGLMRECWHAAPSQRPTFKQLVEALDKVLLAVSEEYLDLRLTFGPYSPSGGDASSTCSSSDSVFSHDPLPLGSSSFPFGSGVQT

kinases (468) [23] = target: kinases (468) (Homo sapiens, UniProt Q15303); conditions: ERBB4; 1000 nM
kinases (468) [24] = target: kinases (468) (Homo sapiens, UniProt P00533, G719C); conditions: EGFR(G719C); 1000 nM
kinases (468) [25] = target: kinases (468) (Homo sapiens, UniProt O14733); conditions: MKK7 (MAP2K7); 1000 nM
kinases (468) [26] = target: kinases (468) (Homo sapiens, UniProt Q15139); conditions: PRKD1; 1000 nM
kinases (468) [27] = target: kinases (468) (Homo sapiens, UniProt O00329); conditions: PIK3CD; 1000 nM
kinases (468) [28] = target: kinases (468) (Homo sapiens, UniProt Q06187); conditions: BTK; 1000 nM
kinases (468) [29] = target: kinases (468) (Homo sapiens, UniProt Q04771); conditions: ACVR1; 1000 nM
kinases (468) [30] = target: kinases (468) (Homo sapiens, UniProt P53671); conditions: LIMK2; 1000 nM
Sequence of kinases (468) (Homo sapiens, UniProt P53671) (P53671 whole entry): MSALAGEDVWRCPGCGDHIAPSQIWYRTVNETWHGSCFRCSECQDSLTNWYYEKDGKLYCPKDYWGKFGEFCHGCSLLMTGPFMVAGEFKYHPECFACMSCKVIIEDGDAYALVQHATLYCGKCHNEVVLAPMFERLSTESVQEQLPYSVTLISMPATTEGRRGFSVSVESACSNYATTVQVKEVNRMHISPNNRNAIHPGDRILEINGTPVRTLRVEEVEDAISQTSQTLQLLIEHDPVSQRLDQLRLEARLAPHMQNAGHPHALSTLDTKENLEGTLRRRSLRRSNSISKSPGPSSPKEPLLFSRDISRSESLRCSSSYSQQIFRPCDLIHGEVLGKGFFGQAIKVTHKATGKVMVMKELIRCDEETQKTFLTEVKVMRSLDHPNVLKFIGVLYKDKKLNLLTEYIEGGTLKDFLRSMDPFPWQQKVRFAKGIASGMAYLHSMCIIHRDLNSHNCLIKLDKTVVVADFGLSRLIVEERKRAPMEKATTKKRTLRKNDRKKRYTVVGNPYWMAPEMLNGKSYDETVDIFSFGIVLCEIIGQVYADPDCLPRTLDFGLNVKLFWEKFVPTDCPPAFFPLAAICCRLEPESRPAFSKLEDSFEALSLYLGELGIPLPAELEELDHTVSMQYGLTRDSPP

kinases (468) [31] = target: kinases (468) (Homo sapiens, UniProt P80192); conditions: MLK1 (MAP3K9); 1000 nM
kinases (468) [32] = target: kinases (468) (Homo sapiens, UniProt P57059); conditions: kinase SIK (Entrez SIK1); compound concentration 1000 nM
kinases (468) [33] = target: kinases (468) (Homo sapiens, UniProt Q9UKE5); conditions: kinase TNIK (Entrez TNIK); compound concentration 1000 nM
kinases (468) [34] = target: kinases (468) (Homo sapiens, UniProt P42336, E545A); conditions: PIK3CA(E545A); 1000 nM

In the case of `C[C@H]1C[C@@H](O)CN(c2ncc(Cl)c(Nc3ccc4c(c3)c3c(c(=O)n4C)OCC(F)(F)[C@H](C4CC4)N3)n2)C1` [CCT373566_9A], the “Percent Control” value (kinases (468) [1]) is reported as 85%, the “Percent Control” value (kinases (468) [2]) is reported as 98% and the “Percent Control” value (kinases (468) [3]) is reported as 81%. For the same compound, the “Percent Control” value (kinases (468) [4]) was 96%, the “Percent Control” value (kinases (468) [5]) was 98% and the “Percent Control” value (kinases (468) [6]) was 96%. The “Percent Control” value (kinases (468) [7]) was 97%, the “Percent Control” value (kinases (468) [8]) was 100% and the “Percent Control” value (kinases (468) [9]) was 97%. For the same compound, the “Percent Control” value (kinases (468) [10]) was 97%, the “Percent Control” value (kinases (468) [11]) was 100% and the “Percent Control” value (kinases (468) [12]) was 94%. The “Percent Control” value (kinases (468) [13]) was 96%, the “Percent Control” value (kinases (468) [14]) was 91% and the “Percent Control” value (kinases (468) [15]) was 100%. For the same compound, the “Percent Control” value (kinases (468) [16]) was 72%, the “Percent Control” value (kinases (468) [17]) was 100% and the “Percent Control” value (kinases (468) [18]) was 90%. The “Percent Control” value (kinases (468) [19]) was 99%, the “Percent Control” value (kinases (468) [20]) was 91% and the “Percent Control” value (kinases (468) [21]) was 100%. The “Percent Control” value (kinases (468) [22]) was 100%, the “Percent Control” value (kinases (468) [23]) was 99% and the “Percent Control” value (kinases (468) [24]) was 94%. For the same compound, the “Percent Control” value (kinases (468) [25]) was 91%, the “Percent Control” value (kinases (468) [26]) was 98% and the “Percent Control” value (kinases (468) [27]) was 90%. The “Percent Control” value (kinases (468) [28]) was 100%, the “Percent Control” value (kinases (468) [29]) was 85% and the “Percent Control” value (kinases (468) [30]) was 100%. For the same compound, the “Percent Control” value (kinases (468) [31]) was 100%, the “Percent Control” value (kinases (468) [32]) was 98% and the “Percent Control” value (kinases (468) [33]) was 94%. For the same compound, the “Percent Control” value (kinases (468) [34]) was 100%.
